BigSolDB 2.1

CC(C)(C)c1ccc(OP2OCC3(CO2)COP(Oc2ccc(C(C)(C)C)cc2C(C)(C)C)OC3)c(C(C)(C)C)c1 (stereo not drawn)
Conditions	solubility (mole fraction)
in ethanol, 303.25 K	0.000185
in ethanol, 308.15 K	0.000249
in ethanol, 312.85 K	0.000324
in ethanol, 318.15 K	0.000365
in ethanol, 322.95 K	0.000426
in ethanol, 328.15 K	0.000534
in ethanol, 332.15 K	0.000669
in isopropanol, 304.15 K	0.000296
in isopropanol, 308.35 K	0.000371
in isopropanol, 313.15 K	0.000473
in isopropanol, 318.25 K	0.000657
in isopropanol, 323.15 K	0.000752
in isopropanol, 327.95 K	0.00113
in isopropanol, 333.35 K	0.00163
in methanol, 304.65 K	5.05e-05
in methanol, 308.25 K	5.84e-05
in methanol, 312.95 K	7.84e-05
in methanol, 318.15 K	0.000119
in methanol, 322.65 K	0.000154
in n-propanol, 303.15 K	0.000477
in n-propanol, 308.15 K	0.000582
in n-propanol, 313.05 K	0.000735
in n-propanol, 318.25 K	0.000925
in n-propanol, 322.75 K	0.00113
in n-propanol, 327.95 K	0.00146
in n-propanol, 333.15 K	0.00182
in tert-butanol, 302.95 K	0.000674
in tert-butanol, 308.05 K	0.000853
in tert-butanol, 313.15 K	0.0012
in tert-butanol, 318.45 K	0.00157
in tert-butanol, 323.05 K	0.00222
in tert-butanol, 328.45 K	0.00302
in tert-butanol, 332.95 K	0.00379
